Experimental data taken from patent US20130310306A1, “HUMAN LACTOFERRIN DERIVED PEPTIDES AND THEIR USE” (PharmaSurgics In Sweden AB, priority 2011, published 2013).

What was measured:
[1] = tested on: TNF-α production in LPS stimulated THP-1 cells; assay: Inhibition of TNF-α production in LPS stimulated THP-1 cells (ELISA); conditions: for TNF-α at 40 μM peptide / TNF-α at 4 μM peptide / TNF-α at 10 μM peptide: mean relative secretion; for TNF-α at 40 μM peptide: stimulated level without peptide = 100%, basal = 0%
S. aureus (CCUG 1800) = assay: Minimal microbicidal concentration (MMC99) assay, S. aureus; type: cell-based; conditions: 2 hours; for MMC99 μM in 50% SWF: 50% heat inactivated simulated wound fluid
Protocol: Antimicrobial Activity was Measured as Bactericidal Effect on S. Aureus Using Minimal Microbicidal Concentration, MMC99, Assay)
S. aureus (#1800; CCUG, Gothenburg, Sweden) cultured on blood-agar plates [Columbia agar (Oxoid, Basingstoke, UK) supplemented with 5% defibrinated horse blood (National Veterinary Institute (SVA), Uppsala, Sweden)] were transferred to brain heart infusion broth (3.7% BHI; Difco, BD Diagnostics, Franklin Lakes, N.J., USA) and incubated in a shaker at 250 rpm+37° C. over night. The culture was thereafter be diluted 1:10 in fresh BHI broth and incubated for additional two hours to reach log-phase growth. The bacteria were pelleted and suspended in 1% BHI medium (BHI broth diluted 100 times in ultra-pure water) to a concentration of 10^7 bacteria/ml as estimated by measuring optical density at 600 nm. Peptides were serially diluted by two-fold steps from 160 μM to 1.25 μM in 1% BHI medium. The peptides (100 μl) were thereafter incubated with bacteria (5 μl á 10^7 bact./ml) for 2 hours at +37° C. Drops (5 μl) of the suspension were placed on blood agar plates. The blood agar plates were incubated over night at +37° C. The MMC99 values, i.e. the lowest peptide concentration needed to achieve a 99% reduction of viable bacteria, were recorded (Table 3). The concentration of the bacterial suspension used in the assay was confirmed by viable counts on blood agar plates.
S. aureus (#1800; CCUG, Gothenburg, Sweden) cultured on blood-agar plates [Columbia agar (Oxoid, Basingstoke, UK) supplemented with 5% defibrinated horse blood (National Veterinary Institute (SVA), Uppsala, Sweden)] were transferred to brain heart infusion broth (3.7% BHI; Difco, BD Diagnostics, Franklin Lakes, N.J., USA) and incubated in a shaker at 250 rpm+37° C. over night. The culture was thereafter be diluted 1:10 in fresh BHI broth and incubated for additional two hours to reach log-phase growth. The bacteria were pelleted and suspended in 1% BHI medium (BHI broth diluted 100 times in ultra-pure water) to a final concentration of 10^7 bacteria/ml as estimated by measuring optical density at 600 nm. Peptides were serially diluted by two-fold steps from 400 μM to 0.78 μM in either 1% BHI medium or in 50% heat inactivated simulated wound fluid [SWF, containing 1 part 0.1% peptone (Oxoid, Basingstoke, UK) in saline and 1 part fetal bovine serum, diluted 2 times in ultra-pure water].
The peptides (100 μl) were thereafter incubated with bacteria (5 μl á 10^7 bact./ml) for 2 hours at +37° C. Drops (5 μl) of the suspension were placed on blood agar plates. The blood agar plates were incubated over night at +37° C. The MMC99 values, i.e. the lowest peptide concentration needed to achieve a 99% reduction of viable bacteria were recorded (Table 6). The concentration of the bacterial suspension used in the assay was confirmed by viable counts on blood agar plates.
The antimicrobial effects of the peptide 265 (SEQ ID NO: 27) was analysed by MMC99 (minimal microbicidal concentration) assay against S. aureus (CCUG 1800), MRSA (CCUG 41879), P. aeruginosa (ATCC 15442), E. coli (CCUG 31246), S. pyogenes (CCUG 4207), P. acnes (CCUG 1794T), S. epidermidis (ATCC12228), K. pneumoniae (ATCC 13883), A. baumannii (ATCC 19606), and C. albicans (ATCC 64549). The peptides were purchased from Biopeptide Company (San Diego, Calif., USA) and Bachem AG (Bubendorf, Switzerland) and results are presented in Table 8A and 8B respectively.
Peptide was serially diluted in two different assay medium, 1% BHI medium (brain-heart infusion medium) or 50% heat inactivated simulated wound fluid (SWF), and thereafter incubated with the microorganisms for 2 hours. Drops of the suspension were placed on blood agar plates. The MMC99 values, i.e. the lowest peptide concentration needed to achieve a 99% reduction of viable microorganisms, were recorded. As presented in Table 8, the peptide has the ability to kill microorganisms frequently appearing in infections.

[2] = screen 1, 99% reduction of viable bacteria

Sequence	TNF-α at 40 μM peptide ([1]; screen 2, 40 μM peptide) [%]	TNF-α at 4 μM peptide ([1]; screen 2) [%]	TNF-α at 10 μM peptide ([1]; screen 2) [%]	MMC99 μM in 1% BHI medium (S. aureus (CCUG 1800); screen 2) [µM]	MMC99 μM in 50% SWF (S. aureus (CCUG 1800); screen 2) [µM]	TNF-α at 40 μM peptide ([1]; screen 1, 40 μM peptide, 6 h) [%]	MMC99 μM in 1% BHI medium (S. aureus (CCUG 1800); [2]) [µM]	TNF-α activities at 40 μM ([1]; 40 μM peptide, result in words)	TNF-α activity at higher concentrations ([1]; concentrations higher than 40 μM, result in words)
CFLWRRNMRKVRGSRRRRG [Peptide 276]	38.8	111.0	135.3	6.25	12.5	–	–	–	–
CFQWKRAMRKVRGPPVSCIKRDS [Peptide 159]	–	–	–	–	–	60	20	–	–
CFQWKRAMRKVRGSRRRRG [Peptide 155]	–	–	–	–	–	5	10	–	–
CFQWQRNMRKVRGPPVSCIKR [Peptide 157]	–	–	–	–	–	153	20	–	–
EATKCFQWQRNMRKVRGPPVSSIKR [Peptide 156]	–	–	–	–	–	124	20	–	–
FQWKRRKRMRRGSVRRRG [Peptide 266]	101.1	–	–	–	–	–	–	–	–
FQWKRRMRKVRGSKKKKG [Peptide 257]	62.8	114.5	109.1	6.25	200	–	–	–	–
FQWKRRMRKVRGSLRRWG [Peptide 258]	39.8	110.4	115.4	6.25	12.5	–	–	–	–
FQWKRRMRKVRGSRRRRG [Peptide 127]	–	–	–	–	–	9	5	–	–
FQWKRRMRKVRSGRRRGR [Peptide 264]	87.2	–	–	–	–	–	–	–	–
FQWQRKMRKVRGSRRRRG [Peptide 126]	–	–	–	–	–	107	10	–	–
FQWQRNMRKVRGPPSRRRRG [Peptide 154]	–	–	–	–	–	162	10	–	–
FQWQRNMRKVRGPSRRRRG [Peptide 153]	–	–	–	–	–	159	10	–	–
FQWQRNMRKVRGSRRRRG [Peptide 116]	–	–	–	–	–	83	10	–	–
FQWQRNMRKVRGSRRRRG [Peptide 150]	–	–	–	–	–	134	10	–	–
FQWQRNMRKVRGSRRRRG [Peptide 152]	–	–	–	–	–	110	10	–	–
FQWQRNMRKVRGSRRRRG [Peptide 224]	113.4	–	–	12.5	400	–	–	–	–

Sequence	TNF-α at 40 μM peptide ([1]; screen 2, 40 μM peptide) [%]	TNF-α at 4 μM peptide ([1]; screen 2) [%]	TNF-α at 10 μM peptide ([1]; screen 2) [%]	MMC99 μM in 1% BHI medium (S. aureus (CCUG 1800); screen 2) [µM]	MMC99 μM in 50% SWF (S. aureus (CCUG 1800); screen 2) [µM]	TNF-α at 40 μM peptide ([1]; screen 1, 40 μM peptide, 6 h) [%]	MMC99 μM in 1% BHI medium (S. aureus (CCUG 1800); [2]) [µM]	TNF-α activities at 40 μM ([1]; 40 μM peptide, result in words)	TNF-α activity at higher concentrations ([1]; concentrations higher than 40 μM, result in words)
FQWQRNMRKVRGSRRRRG [Peptide 256]	100.5	–	–	12.5	200	–	–	–	–
FQWQRNMRKVRGSRRRRG [Peptide 282]	114.8	–	–	12.5	200	–	–	–	–
FQWQRNMRKVRGSRRRRG [template peptide, reference compound]	–	–	–	–	–	–	–	almost inactive	active
FRWKRRMRKVRGSRRRQG [Peptide 263]	61.4	93.6	100.1	6.25	100	–	–	–	–
FWWKKAMKKVKGTRRRRG [Peptide 273]	52.7	86.2	78.6	6.25	12.5	–	–	–	–
FWWKRAMRKVRGSRRRRG [Peptide 132]	–	–	–	–	–	18	5	–	–
FWWKRAMRKVRLSRRRRG [Peptide 270]	23.1	96.2	71.5	6.25	12.5	–	–	–	–
FWWKRAMRKVRNSRRRRG [Peptide 271]	24.5	101.7	74.4	6.25	6.25	–	–	–	–
GRRRRSFQWKRRMRKVR [Peptide 269]	66.2	115.7	113.8	6.25	200	–	–	–	–
GRRRRSGRVKRMRRKQWF [Peptide 268]	74.4	114.5	129.7	6.25	200	–	–	–	–
KQWKRMMRKVFSVRRWFL [Peptide 262]	12.1	79.6	45.3	6.25	6.25	–	–	–	–
KQWKRWMRKVFVSLRRVG [Peptide 260]	5.9	99.3	74.0	6.25	25	–	–	–	–
RQWKRRMRKVFHSYRRMG [Peptide 259]	33.0	108.4	108.5	6.25	25	–	–	–	–
RQWKRVMRKVFGSRWWRG [Peptide 261]	24.5	86.0	56.2	12.5	12.5	–	–	–	–
VYYKRTARKARGSRRRRG [Peptide 272]	102.8	–	–	–	–	–	–	–	–
WFQWKRAMRKVRGSRRRRG [Peptide 130]	–	–	–	–	–	6	5	–	–
